In this assay the test system is patient derived xenograft (PDX) small cell lung cancer models, ex vivo cultures. The assay is described as follows: qRT-PCR of PD markers Notch1 and ASCL1 in ex vivo cultures of SCLC patient derived xenograft (PDX) models. The format is cell-based, human. Particulars: 1 nM, 120 hours. As to the method:
To confirm the results obtained for the panel for small cell lung cancer cell lines, changes in PD markers Notch1 and ASCL1 were evaluated in a panel of patient derived xenograft (PDX) small cell lung cancer models. The initiation and characterization of PDX models LX48, LX108, LX110, LX33 have been described previously (Hann, C. L., et al. 2008, Cancer Research. 68, 2321-2328; Poirier et al. (2013). J. Natl. Cancer Inst. 105, 1059-1065; Leong et al. PLoS One. 2014; 9:e106862). PDX models, FHSC04 and FHSC14 were generated from blood samples obtained from patients with extensive-stage SCLC, following the methodology described by the Dive lab (Hodgkinson et al. 2014 Nat Med August 20(8), 897-903). Ex vivo cultures were treated with 1 nM (trans)-N1-((1R,2S)-2-Phenylcyclopropyl)cyclohexane-1,4-diamine in 96 well plates (10,000 cells/well) for 120 hours. RNA was extracted in TRIzol (Invitrogen) and isolated according to the manufacturer's protocol. cDNA was generated using the iScript synthesis kit (Bio-Rad) according to the manufacturer's protocol. qPCR experiments were run on a Biorad qPCR instrument (CFX384). Data were normalized to GAPDH. FIG. 12 contains the results of the qRT-PCR using the following primers.

On to `N[C@H]1CC[C@H](N[C@@H]2C[C@H]2c2ccccc2)CC1` [RG6016, (trans)-N1-((1R,2S)-2-phenylcyclopropyl)cyclohexane-1,4-diamine], for which the “Regulation of ASCL1 (FIG. 12)” value was “down” and the “Regulation of NOTCH1 (FIG. 12)” value is given as “up”.

For the origin of these results see patent US20190256929A1, “PHARMACODYNAMIC BIOMARKERS FOR PERSONALIZED CANCER CARE USING EPIGENETIC MODIFYING AGENTS” (ORYZON GENOMICS, S.A., priority 2016, published 2019).
